Measured values from publication PMC7717600, “Novel [(N-alkyl-3-indolylmethylene)hydrazono]oxindoles arrest cell cycle and induce cell apoptosis by inhibiting CDK2 and Bcl-2: synthesis, biological evaluation and in silico studies” (Journal of Enzyme Inhibition and Medicinal Chemistry, 2020).

How the values were obtained:
[1] = system: SK-MEL-28; settings: SK-MEL-28, 10 μM
[2] = system: SF-268; settings: SF-268, 10 μM
[3] = system: MDA-MB-435; assay: NCI SRB screening; type: cell-based; settings: MDA-MB-435, 10 μM
[4] = system: K-562; settings: K-562, 10 μM
[5] = system: MCF7; settings: MCF7, 10 μM
[6] = system: OVCAR-8; settings: OVCAR-8, 10 μM
[7] = system: CCRF-CEM; settings: 10 μM
[8] = system: SK-MEL-2; settings: SK-MEL-2, 10 μM
[9] = system: OVCAR-3; settings: OVCAR-3, 10 μM
[10] = system: PC-3; assay: NCI SRB screening; type: cell-based, human; settings: PC-3, 10 μM
[11] = system: RPMI-8226; settings: RPMI-8226, 10 μM
[12] = system: HS 578T; settings: 10 μM
[13] = system: IGROV1; settings: IGROV1, 10 μM
[14] = system: COLO 205; assay: NCI SRB screening; type: cell-based, human; settings: COLO 205, 10 μM
[15] = system: OVCAR-4; settings: OVCAR-4, 10 μM
[16] = system: HL-60(TB); settings: HL-60(TB), 10 μM
[17] = system: ACHN; settings: 10 μM
[18] = system: NCI-H322M; assay: NCI SRB screening; settings: 10 μM
[19] = system: OVCAR-5; settings: OVCAR-5, 10 μM
[20] = system: NCI-H460; assay: NCI SRB screening; type: cell-based, human; settings: NCI-H460, 10 μM
[21] = system: SN12C; settings: 10 μM
[22] = system: UACC-62; settings: UACC-62, 10 μM
[23] = system: NCI-H226; settings: NCI-H226, 10 μM
[24] = system: SNB-75; settings: SNB-75, 10 μM
[25] = system: LOX IMVI; assay: NCI SRB screening; type: cell-based, human; settings: 10 μM
[26] = system: RXF 393; settings: RXF 393, 10 μM
[27] = system: HOP-62; settings: HOP-62, 10 μM
[28] = system: MALME-3M; settings: 10 μM
[29] = system: SF-295; settings: SF-295, 10 μM
[30] = system: HCT-116; settings: HCT-116, 10 μM
[31] = system: SW-620; settings: SW-620, 10 μM
[32] = system: MOLT-4; settings: MOLT-4, 10 μM
[33] = system: NCI-H23; settings: NCI-H23, 10 μM
[34] = system: DU-145; settings: DU-145, 10 μM
[35] = system: U251; settings: U251, 10 μM
[36] = system: MDA-MB-468; settings: MDA-MB-468, 10 μM
[37] = system: HCC-2998; assay: NCI SRB screening; type: cell-based, human; settings: HCC-2998, 10 μM
[38] = system: TK-10; settings: TK-10, 10 μM
[39] = system: SNB-19; settings: SNB-19, 10 μM
[40] = system: SR; settings: 10 μM
[41] = system: M14; assay: NCI SRB screening; type: cell-based; settings: M14, 10 μM
[42] = system: BT-549; settings: BT-549, 10 μM
[43] = system: SK-OV-3; settings: SK-OV-3, 10 μM
[44] = system: EKVX; settings: 10 μM
[45] = system: A549/ATCC; settings: 10 μM
[46] = system: NCI-H522; settings: NCI-H522, 10 μM
[47] = system: 786-0; settings: 786-0, 10 μM
[48] = system: NCI/ADR-RES; settings: 10 μM

Measured: GI %

CC(C)n1cc(C=NN=C2C(=O)Nc3ccccc32)c2ccccc21 [Compound 9]
38%: [44]
13%: [32]
16%: [23]
11%: [40]
18%: [16]
10%: [5] | [46]
33%: [24]
– (Only GI % higher than 10% are shown): all other assays above
